Where “and” joins values, the source holds several entries; their conditions need not be identical. Equal entries are not always repeated. Entries after “also recorded” stand apart in the source; their conditions may differ.
Key:
[1] = pH of the skin surface underneath the system after 5 days' wearing, surface pH electrode (FIG. 6); assay type: in vivo, human; details: in the polymethacrylate matrix
Source text: The systems tested differ in their concentration of citric acid in the polymethacrylate matrix. It is clear that only a citric acid concentration of more than 1% can bring about any significant change in the surface pH of the skin. The words "values 1, 2 and 3" in FIG. 7 refer to test subjects.

[2] = transdermal administration, prior practice; cited from earlier work
[3] = Flux rate of clenbuterol through human skin depending on pH (FIG. 9); assay type: in vitro ADME; details: pH range 6.0 to 8.5 versus higher and lower pH
Source text: The flux rate of an active substance through the skin is defined as the quantity of active substance per unit of area of the skin and per unit of time and is normally given in [μg/cm^2.h].
Curve B illustrates the water solubility of the substance depending on the pH value [mg/ml]. […] (The right-hand ordinate in FIG. 9 is shown logarithmically). [μg/cm^2. h]

[4] = Permeability of pH-modified clenbuterol CPA through human skin (Franz cell release apparatus); assay type: in vitro ADME
Procedure: Permeability of pH-modified clenbuterol CPA through human skin:
Composition of the CPA's:
Polymethacrylate 90% 90%
A Franz cell was used as the release apparatus. This is a conventional method of testing the release of drugs from pharmaceutical formulations. Samples were taken after 24 hours and 48 hours and the clenbuterol content was determined.

SMILES: O=C(O)CC(O)(CC(=O)O)C(=O)O [Citric acid, citric acid]
- citric acid concentration that brings about significant change in the surface pH of the skin [1]: more than 1%

SMILES: CC(C)(C)NCC(O)c1cc(Cl)c(N)c(Cl)c1 (stereo not drawn) [Clenbuterol]
- constancy of blood level values [2]: has not hitherto resulted in constant blood level values
- flux rate depending on pH [3]: reaches a maximum in the pH range specified above, but decreases sharply at higher and lower pH levels; also recorded: reduced drastically outside the pH range specified
- diffusion rate, alkaline versus acid pH ([4]; pH 10.0 vs pH 3.5): a higher diffusion rate is found at an alkaline pH than at an acid pH
- Clenbuterol Diffusion after 24 hours ([4]; pH-value 10.0 (5% Na2CO3), 24 hours, 5% clenbuterol in polymethacrylate): 7.8 μg/cm^2 and 11.44 μg/cm^2 and 9.84 μg/cm^2
- Clenbuterol Diffusion after 48 hours ([4]; pH-value 10.0 (5% Na2CO3), 48 hours, 5% clenbuterol in polymethacrylate): 21.7 μg/cm^2 and 27.3 μg/cm^2 and 24.2 μg/cm^2

— US5462744A, “Transdermal system for the administration of pharmacological compounds under pH-controlled conditions” (Boehringer Ingelheim KG, priority 1990, dated 1995)
